# Read-outs that look alike come from different tables or passages of the source.
# Key:
# [1] = system: Mealy Bug; conditions: mealy bug on cotton plants, green house, dose 1 ml/gm/lit. spray
# [2] = system: Spodoptera litura; conditions: Spodoptera litura 3rd instar on cabbage plants, dose 1 ml/gm/lit. spray
# [3] = system: Thrips; experiment: whole plant or invertebrate; conditions: in Gossypium hirsutum, 48 h
# [4] = system: Aphid; experiment: whole plant or invertebrate; conditions: 48 h
# [5] = system: Thrips
# [6] = system: Aphid; conditions: 48 h, 1 mL or g/L
# [7] = system: tomato seedlings; experiment: Response of tomato plants, greenhouse growth (Ex. 30); type: in vivo
# [8] = system: chili seedlings; experiment: Response of chili plants, greenhouse growth (Ex. 31); type: in vivo
# [9] = Table 13, effect on plants, descriptive; cited from earlier work
# [10] = system: Helicoverpa armigera; conditions: Helicoverpa armigera on okra fruits, dose 1 ml/gm/lit., 72 Hrs.
# [11] = system: Mite; conditions: mite on okra plants, green house, dose 1 ml/gm/lit. spray
# [12] = system: Helicoverpa armigera; conditions: Helicoverpa armigera 3rd instar on chickpea plants, dose 1 ml/gm/lit. spray
# [13] = system: Spodoptera litura; conditions: 72 h, 1 mL or g/L
# [14] = system: Mealy Bug; conditions: Mealy Bug on cotton leaves, dose 1 ml/gm/lit., 48 Hrs.
# [15] = system: Aphid
# [16] = system: Mite; conditions: Dose 1 ml/gm/lit.; 48 hrs
# [17] = system: Thrips; conditions: 48 h, 1 mL or g/L
# [18] = system: Alternaria alternata; experiment: In vitro poisoned food technique against fungus (Ex. 20); type: cell-based; conditions: […]
# [19] = system: Spodoptera litura; experiment: whole plant or invertebrate; conditions: 72 h
# [20] = 48 hrs, corrected for water control
# [21] = 72 hrs, corrected for water control
# [22] = read-out: % Corrected Mortality at 48 Hrs.
# [23] = read-out: % Mortality at 48 Hrs.
# [24] = tomato seedlings, 10th day, dose 1 ml/gm/lit
# [25] = tomato seedlings, dose 1 ml/gm/lit, 10th day
# [26] = chili seedlings, dose 1 ml/gm/lit, 10th day
smiles,measurement,setting,value
"C=C1C2CCC(C2)C1(C)C (centres unmarked) [Camphene, camphene]",% Mortality at 48 Hrs.,[1]; 48 hrs after application,52.50%
same,% Corrected Mortality at 48 Hrs.,[1]; [20],47.22%
same,% Mortality at 72 Hrs.,[2]; 72 hrs after application,65.00%
same,% Corrected Mortality at 72 Hrs.,[2]; [21],63.16%
same,mortality at 1 mL or g/L,[3]; [22],45.7%
same,mortality at 1 mL or g/L,[3]; [23],52.5%
same,mortality at 1 mL or g/L,[4]; [22],41.2%
same,mortality at 1 mL or g/L,[4]; [23],50%
same,Total No. of dead insect at 48 Hrs.,[5]; 48 h,50.00
same,% Mortality at 48 Hrs.,"[5]; thrips on cotton plants, greenhouse, dose 1 ml/gm/lit. spray, 48 hrs after application",50.00%
same,% Corrected Mortality at 48 Hrs.,"[5]; thrips on cotton plants, greenhouse, dose 1 ml/gm/lit. spray, 48 hrs, corrected for water control",44.44%
same,Total No. of dead insect at 48 Hrs.,[6],50.00
same,CCI Pre,[7],11.85
same,Plant Height Pre,[7],5.75 cm
same,Stem Girth Pre,[7],1.29 mm
same,CCI 5th Day,[7]; 120 h,13.99
same,Plant Height 5th Day,[7]; 120 h,6.82 cm
same,Stem Girth 5th Day,[7]; 120 h,1.49 mm
same,CCI 10th Day,[7]; 240 h,14.95
same,Plant Height 10th Day,[7]; 240 h,7.34 cm
same,Root Length % Increase over control,[7]; 240 h,14.19%
same,Stem Girth 10th Day,[7]; 240 h,2.07 mm
same,Plant Height % Increase over pre on 10th Day,[7]; [24],27.65%
same,Stem Girth % Increase over pre on 10th Day,[7]; [24],60.47%
same,CCI % Increase over pre on 10th Day,[7]; [25],26.16%
same,Root Length (cm) 10th Day,[7]; [25],3.80 cm
same,CCI Pre,[8],9.35
same,Plant Height (cm) Pre,[8],3.94 cm
same,CCI 5th Day,[8]; 120 h,10.40
same,Plant Height (cm) 5th Day,[8]; 120 h,5.97 cm
same,CCI 10th Day,[8]; 240 h,12.02
same,Plant Height (cm) 10th Day,[8]; 240 h,6.21 cm
same,Root Lenght % Increase over control,[8]; 240 h,27.80%
same,CCI % Increase over pre on 10th Day,[8]; [26],28.56%
same,Plant Height % Increase over pre on 10th Day,[8]; [26],57.61%
same,Root Lenght (cm) 10th Day,[8]; [26],3.50 cm
same,Stem Girth % Increase over pre on 10th Day,[8]; [26],43.80%
same,Phytotonic Effect,[9],Trigger the nutrition
same,% Mortality at 72 Hrs.,[10],62.50%
same,% Corrected Mortality at 72 Hrs.,[10]; corrected for water control,62.50%
same,% Mortality at 48 Hrs.,[11]; 48 hrs after application,40.00%
same,% Corrected Mortality at 48 Hrs.,[11]; [20],36.84%
same,% Mortality at 72 Hrs.,[12]; 72 hrs after application,60.00%
same,% Corrected Mortality at 72 Hrs.,[12]; [21],60.00%
same,Total No. of dead insect at 72 Hrs.,[13],6.75
same,% Mortality at 48 Hrs.,[14],45.00%
same,% Corrected Mortality at 48 Hrs.,[14]; corrected for water control,42.11%
same,Total No. of dead insect at 48 Hrs.,[15]; 48 h,5.25
same,% Corrected Mortality at 48 Hrs.,"[15]; Dose 1 ml/gm/lit., 48 hrs",45.71%
same,% Mortality at 48 Hrs.,"[15]; Dose 1 ml/gm/lit., 48 hrs",52.50%
same,% Corrected Mortality at 48 Hrs.,[16],35.14%
same,% Mortality at 48 Hrs.,[16],40.00%
same,Total No. of dead insect at 48 Hrs.,[17],5.25
same,inhibition of growth at 1 mL or g/L,[18],18.8%
same,mortality at 1 mL or g/L,[19]; read-out: % Corrected Mortality at 72 Hrs.,65.8%
same,mortality at 1 mL or g/L,[19]; read-out: % Mortality at 72 Hrs.,67.5%
